The text below walks through data of paper PMC9504587, “Cytotoxic Drimane-Type Sesquiterpenes from Co-Culture of the Marine-Derived Fungi Aspergillus carneus KMM 4638 and Beauveria felina (=Isaria felina) KMM 4639” (Marine Drugs, 2022).

What is called IC50 is the concentration that gives 50% inhibition.

In brackets after ≈: the same amount, converted by molar mass. Like-named read-outs stand apart in the source and are kept apart here.

Assay [1] concerns normal rat cardiomyocyte H9c2 cell line. The experiment in a line: MTT cytotoxicity assay, H9c2 cells. In kind it is cell-based. To be noted: Rattus norvegicus, H9c2, 24 h, 24 h incubation, mean ± SEM. The method, then: (§1) PC-3, MCF-7, C6, and H9c2 cells were cultured in DMEM medium (Biolot, St. Petersburg, Russia) containing 10% fetal bovine serum (Biolot, St. Petersburg, Russia) and 1% penicillin/streptomycin (Biolot, St. Petersburg, Russia) at 37 °C in a humidified atmosphere with 5% (v/v) CO2. The Raji cells were cultured in RPMI-1640 medium (Biolot, St. Petersburg, Russia) containing 10% fetal bovine serum (Biolot, St. Petersburg, Russia) and 1% penicillin/streptomycin (Biolot, St. Petersburg, Russia) under the same conditions.
(§2) Initially, cells were incubated in culture flasks until subconfluent (~80%). For testing, the cells were seeded at concentrations of 5 × 10^3 cells/well (PC-3, MCF-7, Raji, and C6 cells) or 3 × 10^3 cells/well (H9c2 cells), and experiments were started after 24 h.
(§3) The in vitro cytotoxicity of individual substances was determined by the MTT method (3-(4,5-dimethylthiazol-2-yl)-2,5-diphenyltetrazolium bromide), according to the manufacturer’s instructions (Sigma-Aldrich, St. Louis, MO, USA).
(§4) Investigated compounds were dissolved in DMSO at a concentration of 10 mM.
(§5) The cells were treated with the investigated compounds for 24 h or 48 h, and MTT reagent was added to each well of the plate. The vehicle with DMSO at a concentration of 1% was used as a control. The absorbance of formed formazan was measured at λ = 570 nm using a Multiskan FC microplate photometer (Thermo Scientific, Waltham, MA, USA) and expressed in optical units (o.u.). The results are presented as % of viable cells relative to vehicle, and 50% inhibition concentration of cell viability (IC50) was calculated.

The next assay concerns rat glioblastoma C6. The experiment in a line: MTT cytotoxicity assay, C6 cells. In kind it is cell-based. To be noted: Rattus norvegicus, C6, 24 h, 24 h incubation, mean ± SEM. As to the method:
as §1, §2, §3, §4, §5
Background: Tetrazolium assays rely on reduction of a dye to a coloured formazan, in cell work by metabolically active cells.

Assay [2] concerns human prostate cancer PC-3. The experiment in a line: MTT cytotoxicity assay, PC-3 cells. To be noted: Homo sapiens, PC-3, 24 h, 24 h incubation, mean ± SEM. Format: cell-based. As to the method: as §1, §2, §3, §4, §5
For a further assay, the system named is human lymphoma Raji. The experiment in a line: MTT cytotoxicity assay, Raji cells. In kind it is cell-based. To be noted: Homo sapiens, Raji, 24 h, 24 h incubation, mean ± SEM. The method, then: as §1, §2, §3, §4, §5
Assay [3] deals with human breast cancer MCF-7. The experiment in a line: MTT cytotoxicity assay, MCF-7 cells. In kind it is cell-based. The method, then:
as §1, §2, §3, §4, §5

Assay [4] has as its system MCF-7 cells. Description: Apoptosis profile by flow cytometry (Muse annexin V and dead cell kit). In kind it is cell-based, human. To be noted: 10 µM, 48 h. As to the method: After incubation, culture media were collected; then, cells were washed twice with cold PBS and incubated with trypsin-EDTA solution for 1 min. The cell suspension was washed twice by centrifugated at 250× g for 4 min with cold PBS and used for apoptosis detection by a Muse® annexin V and dead cell kit in accordance with manufacturer’s instructions (Luminex, Austin, TX, USA). Fluorescence was measured with a Muse® cell analyzer (Luminex, Austin, TX, USA), and data were processed by Muse 1.5 analysis software (Luminex, Austin, TX, USA). The proportion of apoptotic cells was expressed as a percentage.
A general note: A flow cytometer gives signals particle by particle.

In assay [5] the test system is MCF-7 cells. The experiment in a line: Total caspase activity by flow cytometry (Muse multicaspase kit). In kind it is cell-based, human. To be noted: 10 µM, 48 h; control 4.7%. As to the method: The influence of the compounds on the percentage of live MCF-7 cells (caspase−/7-AAD−), live MCF-7 cells with caspase activity (caspase+/7-AAD−), dead MCF-7 cells with caspase activity […] MCF-7 cells (caspase−/7-AAD+) was measured by a Muse® multicaspase kit (Luminex, Austin, TX, USA). The kit utilizes a VAD-peptide derivatized with a fluorescent group called fluorescent-labeled inhibitor of caspases (FLICA). The peptide binds to activated caspases, resulting in a fluorescent signal proportional to the number of active caspases in the cell. Fluorescent dye 7-AAD was used as a dead cell marker in this assay.
After incubation, culture media were collected, and cells were washed twice with cold PBS and incubated in trypsin-EDTA solution for 1 min. The cell suspension was washed twice by centrifugation at 250× g for 4 min with cold PBS and then used for caspase activity detection by a Muse® multicaspase kit (caspases 1, 3, 4, 5, 6, 7, 8, and 9) in accordance with manufacturer’s instructions (Luminex, Austin, TX, USA). Fluorescence was measured with a Muse® cell analyzer (Luminex, Austin, TX, USA), and data were processed by Muse 1.5 analysis software (Luminex, Austin, TX, USA).

For assay [6], the system named is MCF-7 cells. The experiment in a line: Cell cycle analysis by flow cytometry (propidium iodide). Format: cell-based, human. To be noted: 10 µM, 48 h. The method, then: After incubation, cells were trypsinized, harvested, washed with PBS, and fixed with ice-cold 70% ethanol in a dropwise manner prior to storage at −20 °C overnight. The cells were then washed with PBS, incubated with 200 μg/mL RNAse (PanReac, AppliChem, Darmstadt, Germany) and 20 μg/mL of propidium iodide (Sigma-Aldrich, St. Louis, MO, USA) for 30 min at 37 °C, and the DNA content was analyzed with a Muse® cell analyzer (Luminex, Austin, TX, USA). The data were processed by Muse 1.5 analysis software (Luminex, Austin, TX, USA). The proportion of cells in each phase of the cell cycle was expressed as a percentage.

Assay [7] relates to H9c2, C6, PC-3, Raji and MCF-7 cells. Description: MTT cytotoxicity, summary statements over several cell lines. Format: cell-based. To be noted: 24 h, range over both compounds and three cell lines. The method, then: as §3, §4, §5
The subject of assay [8] is human leukemia HL-60 cells. Set-up: method as in PMID 19769341. To be noted: read-out: IC50, HL-60 cell viability; cited from earlier work.
Assay [9] relates to human lung cancer A549 cells. On the set-up: method as in PMID 19769341. To be noted: cited from earlier work.
Another assay has as its system lymphoma L5178Y. Set-up: method as in PMID 19778087. To be noted: cited from earlier work.
The subject of the next assay is PC 12. Set-up: method as in PMID 19778087. To be noted: cited from earlier work.
A further assay deals with HeLa cells. Set-up: method as in PMID 19778087. To be noted: cited from earlier work.
In the next assay the target is PTP1B. On the set-up: method as in earlier work. To be noted: cell-free assay; cited from earlier work.
Another assay concerns the target SHP2. Set-up: method as in earlier work. To be noted: cell-free assay; cited from earlier work.

Consider `CC1(C)CCC[C@@]2(C)[C@H]1[C@H](OC(=O)/C=C/C=C/C=O)C=C1COC(=O)[C@@]12O` [Compound 9, ustusolate E], for which the IC50 worked out at 66.9 ± 3 µM in assay [1]; 54.3 ± 3.3 µM in the assay on rat glioblastoma C6; 50.1 ± 1.8 µM in [2]; 88.1 ± 1.3 µM in the assay on human lymphoma Raji; 10.1 ± 0.5 µM in assay [3] (48 h incubation, concentrations up to 10 µM, read-out: IC50, MCF-7 cell viability, prolonged incubation); 57.8 ± 0.5 µM in [3] (Homo sapiens, MCF7, 24 h, 24 h incubation, mean ± SEM, read-out: IC50, MCF-7). In addition, the IC50 in [3] (Homo sapiens, MCF7, 48 h, 48 h incubation, concentrations up to 10 µM, read-out: IC50, MCF-7 cell viability, prolonged incubation) was 10 µM; in assay [7] it was 54.3 to 88.1 µM; in [8] it was 8 µM; in the assay on lymphoma L5178Y, 1.6 µM; in the assay with PC 12 it was 19.3 µM; in the assay on HeLa cells it was 15.8 µM. Further, in assay [3] (10 µM, 48 h), the “decrease in MCF-7 cell viability” value is listed as around 50%. For the same compound, in the assay with MCF-7 cells [4] (control 1.7%), the “amount of apoptotic cells (early and late)” value is recorded as 6.8%. Also, the “amount of living cells” value in the assay on MCF-7 cells [4] (control 98.6%) is 94.1%. Besides, the “percentage of cells exhibiting caspase activity (living and 7-AAD-labeled)” value in the assay with MCF-7 cells [5] is recorded as 12.4%. Also, the subG0 cells with MCF-7 cells [6] (control 5.4%) came to 24.7%. For the same compound, the “decrease in the percentage of cells in the S phase” value in the assay with MCF-7 cells [6] (relative to control) came out at 41.2%. In addition, the “increase of the percentage of cells in the G2/M phase” value with MCF-7 cells [6] (relative to control) is reported as 67.3%. The “reduction of the percentage of cells in the G0/G1 phase” value with MCF-7 cells [6] (relative to control) is 33.3%. The “increase of the subG0 population of cells” value in the assay with MCF-7 cells [6] (versus control) is reported as 4.6 times. Moreover, the “toxicity against A549 cells” value in [9] is reported as “nontoxic”. Further, at PTP1B, the “IC50, PTP1B enzyme activity” value was 50 µg/mL (≈ 134 µM). In addition, the “IC50, SHP2 enzyme activity” value on SHP2 is listed as 40 µg/mL (≈ 107 µM).
